Measurements taken from patent US12637478B2, “Compound, preparation method thereof, and antibiotic composition comprising same” (priority 2020, dated 2026).
≈ marks a conversion by molar mass, not a printed value.

Tests used:
C. difficile 174 = experiment: MIC by agar dilution against Clostridioides difficile, test strain 18; format: cell-based; conditions: test strain 18, C. difficile 174, anaerobic, agar dilution, read-out: MIC
C. difficile 173 = experiment: MIC by agar dilution against Clostridioides difficile, test strain 17; format: cell-based; conditions: test strain 17, C. difficile 173, anaerobic, agar dilution, read-out: MIC
C. difficile 181 = experiment: MIC by agar dilution against Clostridioides difficile, test strain 19; format: cell-based; conditions: test strain 19, C. difficile 181, anaerobic, agar dilution, read-out: MIC
C. difficile 9689 = experiment: MIC by agar dilution against Clostridioides difficile, test strain 13; format: cell-based; conditions: test strain 13, C. difficile 9689, anaerobic, agar dilution, read-out: MIC
C. difficile 161 = experiment: MIC by agar dilution against Clostridioides difficile, test strain 16; format: cell-based; conditions: test strain 16, C. difficile 161, anaerobic, agar dilution, read-out: MIC
C. difficile 159 = experiment: MIC by agar dilution against Clostridioides difficile, test strain 15; format: cell-based; conditions: test strain 15, C. difficile 159, anaerobic, agar dilution, read-out: MIC
C. difficile 152 = experiment: MIC by agar dilution against Clostridioides difficile, test strain 14; format: cell-based; conditions: test strain 14, C. difficile 152, anaerobic, agar dilution, read-out: MIC
S. aureus^MS [1] = experiment: MIC by broth microdilution (aerobic pathogens), test strain 1; format: cell-based; conditions: Staphylococcus aureus
Procedure: (§1) The antibacterial activity of the compounds of Examples 1 to 48 of the present invention against aerobic pathogens were evaluated by measuring the minimum concentration of the antibiotic capable of inhibiting bacterial growth by 90% compared to the growth of the non-drug treated control group. MIC was measured by the broth microdilution method based on CLSI standards [Reference: Clinical and Laboratory Standards Institute Document. (2000) Methods for Dilution Antimicrobial Susceptibility Test for Bacteria that Grow Aerobically-Fifth Edition: M7-A5. CLSI, Villanova, PA].
(§2) All 13 strains such as methicillin susceptible Staphylococcus aureus (MSSA), methicillin resistant Staphylococcus aureus (MRSA), Vancomycin resistant Staphylococcus aureus (VRSA), Staphylococcus epidermidis, methicillin resistant Staphylococcus epidermidis, Enterococcus faecalis, Vancomycin resistant Enterococcus faecalis, Enterococcus faecium, Vancomycin resistant Enterococcus faecium were used.

E. faecalis^LinR = experiment: MIC by broth microdilution (aerobic pathogens), test strain 9; format: cell-based, Linezolid resistant Enterococcus faecalis; conditions: Enterococcus faecalis; test strain 9, E. faecalis^LinR (linezolid resistant); read-out: MIC
Procedure: as §1, §2

S. aureus^MS [2] = experiment: MIC by broth microdilution (aerobic pathogens), test strain 2; format: cell-based; conditions: Staphylococcus aureus; test strain 2, S. aureus^MS; read-out: MIC
Procedure: as §1, §2

S. epidermis = experiment: MIC by broth microdilution (aerobic pathogens), test strain 5; format: cell-based; conditions: Staphylococcus epidermidis; test strain 5, S. epidermis; read-out: MIC
Procedure: as §1, §2

S. epidermis^MR = experiment: MIC by broth microdilution (aerobic pathogens), test strain 6; format: cell-based, Methicillin resistant Staphylococcus epidermidis; conditions: Staphylococcus epidermidis; test strain 6, S. epidermis^MR (methicillin resistant); read-out: MIC
Procedure: as §1, §2

E. faecalis^VanA = experiment: MIC by broth microdilution (aerobic pathogens), test strain 8; format: cell-based, Vancomycin resistant Enterococcus faecalis; conditions: Enterococcus faecalis; test strain 8, E. faecalis^VanA (vancomycin resistant); read-out: MIC
Procedure: as §1, §2

E. faecalis = experiment: MIC by broth microdilution (aerobic pathogens), test strain 7; format: cell-based; conditions: Enterococcus faecalis; test strain 7, E. faecalis; read-out: MIC
Procedure: as §1, §2

E. faecium = experiment: MIC by broth microdilution (aerobic pathogens), test strain 10; format: cell-based; conditions: Enterococcus faecium; test strain 10, E. faecium; read-out: MIC
Procedure: as §1, §2

[3] = test strain 1, S. aureus^MS, read-out: MIC

SMILES	MIC (C. difficile 174) [µg/mL]	MIC (C. difficile 173) [µg/mL]	MIC (C. difficile 181) [µg/mL]	MIC (C. difficile 9689) [µg/mL]	MIC (C. difficile 161) [µg/mL]	MIC (C. difficile 159) [µg/mL]	MIC (C. difficile 152) [µg/mL]	MIC (S. aureus^MS [1]; [3]) [µg/mL]	MIC (E. faecalis^LinR) [µg/mL]	MIC (S. aureus^MS [2]) [µg/mL]	MIC (S. epidermis) [µg/mL]	MIC (S. epidermis^MR) [µg/mL]	MIC (E. faecalis^VanA) [µg/mL]	MIC (E. faecalis) [µg/mL]	MIC (E. faecium) [µg/mL]	MIC (S. aureus^MS [1]) [µg/mL]
C/C=C1\NC(=O)[C@H]([C@@H](C)O)NC(=O)c2csc(n2)-c2ccc(-c3nc(-c4nc(C(=O)NC5(C(=O)NCCn6cc([N+](=O)[O-])nc6C)CC5)cs4)cs3)nc2-c2csc(n2)[C@H]([C@@H](C)O)NC(=O)c2csc(n2)[C@H](C(C)C)NC(=O)c2csc1n2 [Compound 45]	0.5 (≈ 0.403 µM)	1 (≈ 0.807 µM)	1 (≈ 0.807 µM)	0.5 (≈ 0.403 µM)	0.5 (≈ 0.403 µM)	0.5 (≈ 0.403 µM)	0.5 (≈ 0.403 µM)	–	–	–	–	–	–	–	–	–
C/C=C1\NC(=O)[C@H]([C@@H](C)O)NC(=O)c2csc(n2)-c2ccc(-c3nc(-c4nc(C(=O)NC5(C(=O)NCCCn6c(=O)[nH]cc([N+](=O)[O-])c6=O)CC5)cs4)cs3)nc2-c2csc(n2)[C@H]([C@@H](C)O)NC(=O)c2csc(n2)[C@H](C(C)C)NC(=O)c2csc1n2 [Compound 22]	0.125 (≈ 0.0974 µM)	0.5 (≈ 0.39 µM)	–	0.125 (≈ 0.0974 µM)	–	–	0.125 (≈ 0.0974 µM)	0.25 (≈ 0.195 µM)	0.5 (≈ 0.39 µM)	0.125 (≈ 0.0974 µM)	–	–	–	–	–	–
C/C=C1\NC(=O)[C@H]([C@@H](C)O)NC(=O)c2csc(n2)-c2ccc(-c3nc(-c4nc(C(=O)NC5(C(=O)NCCCCCB(O)O)CC5)cs4)cs3)nc2-c2csc(n2)[C@H]([C@@H](C)O)NC(=O)c2csc(n2)[C@H](C(C)C)NC(=O)c2csc1n2 [Compound 21]	0.25 (≈ 0.208 µM)	0.5 (≈ 0.417 µM)	1 (≈ 0.833 µM)	0.25 (≈ 0.208 µM)	–	–	0.25 (≈ 0.208 µM)	0.25 (≈ 0.208 µM)	0.5 (≈ 0.417 µM)	0.125 (≈ 0.104 µM)	–	–	–	–	–	–
C/C=C1\NC(=O)[C@H]([C@@H](C)O)NC(=O)c2csc(n2)-c2ccc(-c3nc(-c4nc(C(=O)NC5(C(=O)NCCCCCCB(O)O)CC5)cs4)cs3)nc2-c2csc(n2)[C@H]([C@@H](C)O)NC(=O)c2csc(n2)[C@H](C(C)C)NC(=O)c2csc1n2 [Compound 27]	–	–	–	–	–	–	–	0.25 (≈ 0.206 µM)	0.5 (≈ 0.412 µM)	0.5 (≈ 0.412 µM)	–	–	–	–	–	–
C/C=C1\NC(=O)[C@H]([C@@H](C)O)NC(=O)c2csc(n2)-c2ccc(-c3nc(-c4nc(C(=O)NC5(C(=O)NCc6ncc([N+](=O)[O-])n6C)CC5)cs4)cs3)nc2-c2csc(n2)[C@H]([C@@H](C)O)NC(=O)c2csc(n2)[C@H](C(C)C)NC(=O)c2csc1n2 [Compound 44]	0.5 (≈ 0.408 µM)	0.5 (≈ 0.408 µM)	0.5 (≈ 0.408 µM)	0.5 (≈ 0.408 µM)	0.25 (≈ 0.204 µM)	–	0.25 (≈ 0.204 µM)	–	–	–	–	–	–	–	–	–
C/C=C(\NC(=O)c1csc(-c2csc(-c3ccc4c(n3)-c3csc(n3)[C@H]([C@@H](C)O)NC(=O)c3csc(n3)[C@H](C(C)C)NC(=O)c3csc(n3)/C(=C/C)NC(=O)[C@H]([C@@H](C)O)NC(=O)c3csc-4n3)n2)n1)C(=O)NCCCN1CCN(C(C)C)CC1 [Compound 34]	–	–	–	–	–	–	–	0.5 (≈ 0.399 µM)	–	1 (≈ 0.797 µM)	0.25 (≈ 0.199 µM)	0.5 (≈ 0.399 µM)	1 (≈ 0.797 µM)	1 (≈ 0.797 µM)	–	–
C/C=C1\NC(=O)[C@H]([C@@H](C)O)NC(=O)c2csc(n2)-c2ccc(-c3nc(-c4nc(C(=O)NC5(C(=O)NCCCN6CCN(C7CC7)CC6)CC5)cs4)cs3)nc2-c2csc(n2)[C@H]([C@@H](C)O)NC(=O)c2csc(n2)[C@H](C(C)C)NC(=O)c2csc1n2 [Compound 15]	–	–	–	–	–	–	–	1 (≈ 0.798 µM)	0.5 (≈ 0.399 µM)	1 (≈ 0.798 µM)	1 (≈ 0.798 µM)	1 (≈ 0.798 µM)	–	1 (≈ 0.798 µM)	1 (≈ 0.798 µM)	–
C/C=C1\NC(=O)[C@H]([C@@H](C)O)NC(=O)c2csc(n2)-c2ccc(-c3nc(-c4nc(C(=O)NC5(C(=O)NCCN6CCN(CCC(=O)OC)CC6)CC5)cs4)cs3)nc2-c2csc(n2)[C@H]([C@@H](C)O)NC(=O)c2csc(n2)[C@H](C(C)C)NC(=O)c2csc1n2 [Compound 24]	–	–	–	–	–	–	–	0.5 (≈ 0.389 µM)	1 (≈ 0.778 µM)	1 (≈ 0.778 µM)	0.25 (≈ 0.195 µM)	1 (≈ 0.778 µM)	–	1 (≈ 0.778 µM)	–	–
C/C=C1\NC(=O)[C@H]([C@@H](C)O)NC(=O)c2csc(n2)-c2ccc(-c3nc(-c4nc(C(=O)NC5(C(=O)NCCCN6C(=O)CN(CCC(=O)O)C6=O)CC5)cs4)cs3)nc2-c2csc(n2)[C@H]([C@@H](C)O)NC(=O)c2csc(n2)[C@H](C(C)C)NC(=O)c2csc1n2 [Compound 19]	–	–	–	–	–	–	–	–	–	–	–	–	–	–	–	0.5 (≈ 0.385 µM)
